Reference: US10780090B2, “Heteroaryl compounds useful as inhibitors of SUMO activating enzyme” (Millennium Pharmaceuticals, Inc., priority 2014, dated 2020)

Molecular target: recombinant human SAE enzyme (Homo sapiens (Human), UniProt Q9UBT2)
Assay: SAE HTRF enzyme assay
Assay type: biochemical
Settings: for inhibition at 0.111 µM: Concentration 0.111 μM, read-out: Percent Inhibition; for IC50: class symbols A/B/C
Summary of the method: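 This HTRF format monitors Sumo-Flag–Ubc9-GST thioester formation catalysed by 0.11 nM human SAE with 0.5 μM ATP over 105 min at 24° C. Inhibition is expressed at a single concentration or as IC50.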

Chain of recombinant human SAE enzyme (Q9UBT2 whole entry): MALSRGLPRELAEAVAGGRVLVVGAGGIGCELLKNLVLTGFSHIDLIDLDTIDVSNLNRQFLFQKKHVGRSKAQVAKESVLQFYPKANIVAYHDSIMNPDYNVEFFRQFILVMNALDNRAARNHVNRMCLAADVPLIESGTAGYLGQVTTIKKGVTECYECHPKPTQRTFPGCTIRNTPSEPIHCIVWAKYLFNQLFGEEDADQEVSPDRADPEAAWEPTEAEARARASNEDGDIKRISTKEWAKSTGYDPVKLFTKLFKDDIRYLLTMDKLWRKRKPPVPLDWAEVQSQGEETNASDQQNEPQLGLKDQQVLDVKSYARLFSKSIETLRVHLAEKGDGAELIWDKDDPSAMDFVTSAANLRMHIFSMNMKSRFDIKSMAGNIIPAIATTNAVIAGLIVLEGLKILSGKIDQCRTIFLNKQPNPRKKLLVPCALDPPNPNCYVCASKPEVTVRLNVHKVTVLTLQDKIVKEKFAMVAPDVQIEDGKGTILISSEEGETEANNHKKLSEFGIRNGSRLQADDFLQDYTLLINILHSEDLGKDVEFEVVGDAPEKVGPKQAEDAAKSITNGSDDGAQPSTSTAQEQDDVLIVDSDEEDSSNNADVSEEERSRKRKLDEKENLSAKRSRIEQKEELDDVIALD
Chain of recombinant human SAE enzyme (Q9UBE0 whole entry partner): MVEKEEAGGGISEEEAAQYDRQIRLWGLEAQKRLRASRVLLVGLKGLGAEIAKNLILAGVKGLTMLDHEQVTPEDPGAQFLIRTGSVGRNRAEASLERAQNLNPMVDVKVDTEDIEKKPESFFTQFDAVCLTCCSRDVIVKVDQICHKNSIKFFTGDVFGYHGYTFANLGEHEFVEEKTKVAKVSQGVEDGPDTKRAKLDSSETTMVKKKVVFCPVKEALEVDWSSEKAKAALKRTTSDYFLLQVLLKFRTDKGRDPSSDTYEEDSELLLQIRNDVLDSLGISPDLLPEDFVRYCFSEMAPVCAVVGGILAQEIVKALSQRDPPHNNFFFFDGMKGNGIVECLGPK

SMILES | inhibition at 0.111 µM | IC50
NS(=O)(=O)OC[C@H]1C[C@@H](Nc2ncncc2C(=O)c2cc(COc3ccccc3Br)cs2)C[C@@H]1O [I-98, [(1R,2S,4R)-4-{[5-({4-[(2-bromophenoxy)methyl]-2-thienyl}carbonyl)pyrimidin-4-yl]amino}-2-hydroxycyclopentyl]methyl sulfamate] | 97% | < 10 nM
NS(=O)(=O)OC[C@H]1C[C@@H](Nc2ncncc2C(=O)c2cc(Cc3cccc(I)c3)cs2)[C@@H](F)[C@@H]1O [I-99, {(1R,2R,3R,4R)-3-fluoro-2-hydroxy-4-[(5-{[4-(3-iodobenzyl)-2-thienyl]carbonyl}pyrimidin-4-yl)amino]cyclopentyl}methyl sulfamate] | 97% | < 10 nM
C=C(c1cccc(Cl)c1)c1cc(C(=O)c2cncnc2N[C@@H]2C[C@H](COS(N)(=O)=O)[C@@H](O)C2)sc1C [I-100, [(1R,2S,4R)-4-{[5-({4-[1-(3-Chlorophenyl)vinyl]-5-methyl-2-thienyl}carbonyl)pyrimidin-4-yl]amino}-2-hydroxycyclopentyl]methyl sulfamate] | 97% | < 10 nM
NS(=O)(=O)OC[C@H]1C[C@@H](Nc2ncncc2C(=O)c2cc(Cc3cccc(Br)c3)cs2)[C@@H](F)[C@@H]1O [I-101, {(1R,2R,3R,4R)-4-[(5-{[4-(3-bromobenzyl)-2-thienyl]carbonyl}pyrimidin-4-yl)amino]-3-fluoro-2-hydroxycyclopentyl}methyl sulfamate] | 96% | < 10 nM
NS(=O)(=O)OC[C@H]1C[C@@H](Nc2ncncc2C(=O)c2cc(Cc3ccc(Cl)c(Cl)c3)cs2)C[C@@H]1O [I-104, {(1R,2S,4R)-4-[(5-{[4-(3,4-Dichlorobenzyl)-2-thienyl]carbonyl}pyrimidin-4-yl)amino]-2-hydroxycyclopentyl)methyl sulfamate] | 97% | < 10 nM
Cc1cn(Cc2csc(C(=O)c3cncnc3N[C@@H]3C[C@H](COS(N)(=O)=O)[C@@H](O)C3)c2)c2ccccc12 [I-105, [(1R,2S,4R)-2-Hydroxy-4-{[5-({4-[(3-methyl-1H-indol-1-yl)methyl]-2-thienyl}carbonyl)pyrimidin-4-yl]amino}cyclopentyl]methyl sulfamate] | 96% | < 10 nM
NS(=O)(=O)OC[C@H]1C[C@@H](Nc2ncncc2C(=O)c2cc(Cc3cccc(Cl)c3)c(Cl)s2)C[C@@H]1O [I-107, {(1R,2S,4R)-4-[(5-{[5-chloro-4-(3-chlorobenzyl)-2-thienyl]carbonyl}pyrimidin-4-yl)amino]-2-hydroxycyclopentyl}methyl sulfamate] | 96% | < 10 nM
NS(=O)(=O)OC[C@H]1C[C@@H](Nc2ncncc2C(=O)c2cc(CCc3ccccc3)cs2)C[C@@H]1O [I-108, {(1R,2S,4R)-2-Hydroxy-4-[(5-{[4-(2-phenylethyl)-2-thenyl]carbonyl}pyrimidin-4-yl)amino]cyclopentyl}methyl sulfamate] | 96% | –
Cc1sc(C(=O)c2cncnc2N[C@@H]2C[C@H](COS(N)(=O)=O)[C@@H](O)C2)cc1Cn1cccn1 [I-109, {(1R,2S,4R)-2-Hydroxy-4-[(5-{[5-methyl-4-(1H-pyrazol-1-ylmethyl)-2-thienyl]carbonyl}pyrimidin-4-yl)amino]cyclopentyl)methyl sulfamate] | 96% | < 10 nM
NS(=O)(=O)OC[C@H]1C[C@@H](Nc2ncncc2C(=O)c2cc(Cc3cccc(Cl)c3)c(CC3CCOCC3)s2)C[C@@H]1O [I-110, {(1R,2S,4R)-4-[(5-{[4-(3-chlorobenzyl)-5-(tetrahydro-2H-pyran-4-ylmethyl)-2-thienyl]carbonyl}pyrimidin-4-yl)amino]-2-hydroxycyclopentyl}methyl sulfamate] | 98% | < 10 nM
